Experimental data published in patent US20250213701A1, “MEDICAMENT FOR TREATING HUMAN TUMOR BASED ON ERF3A-TARGETING PROTEOLYSIS MECHANISM” (SUZHOU DEGEN BIO-MEDICAL CO., LTD., priority 2022, published 2025).

Assays:
Assay type in all cases: cell-based, human
VCaP cells = assay: Anti-proliferative toxicity against prostate cancer cell line Vcap (CCK8); conditions: Homo sapiens, 72 h, 3 days, CCK8
Description: (§1) Example 82: Detection of Anti-Proliferative Toxicity Against Prostate Cancer Cell Lines Vcap, 22Rv1, and PC-3
(§2) Vcap cells (purchased from the Cell Bank of the Chinese Academy of Sciences, Cat. No. SCSP-5034) were subcultured in a culture medium (DMEM medium+1% penicillin-streptomycin dual-antibiotic solution+10% fetal bovine serum) in an incubator at 5% carbon dioxide and 37° C. 22Rv1 cells (purchased from the Cell Bank of the Chinese Academy of Sciences, Cat. No. TCHu100) were subcultured in a culture medium (RPMI-1640 medium+1% penicillin-streptomycin dual-antibiotic solution+10% fetal bovine serum) in an incubator at 5% carbon dioxide and 37° C.
VCap cells were seeded at 20000 cells/well (90 μL) on a 96-well plate and cultured for 72 h. The original medium was removed, and a new medium of 90 μL was added.
(§3) 10 mM compound stock solutions were prepared in DMSO.
For VCap cells, the compound stock solution was diluted with DMSO to give DMSO solutions 1-10 at concentrations of 0 μM, 80 μM, 16 μM, 3.2 μM, 1.5 μM, 0.5 μM, 0.15 μM, 0.05 μM, 0.025 μM, and 0.0005 μM.
For Vcap cells, 2 μL of each of the above solutions 1-10 was added to 98 μL of Vcap medium to give mixed solutions 20-29 of the compound and the medium.
For Vcap cells, 10 μL of each of the above solutions 20-29 was added to the above cell seed solution to give a total volume of 100 μL (90 μL+10 μL), where the concentrations of the compound in wells were 0 μM, 0.16 μM, 0.032 μM, 0.006 μM, 0.003 μM, 0.001 μM, 0.0003 μM, 0.0001 μM, 0.00005 μM, and 0.00001 μM. All concentrations were in triplicate.
(§4) After the above-treated cells were cultured for 3 days, 10 μL of the CCK8 solution (DOJINDO, Cat. No. PF725) was added to each well. The plate was incubated in an incubator at 37° C. for 1-4 h and then detected on a microplate reader for the reading at 450 nm.

22Rv1 cells = assay: Anti-proliferative toxicity against prostate cancer cell line 22Rv1 (CCK8); conditions: Homo sapiens, 72 h, 3 days, CCK8
Description: as §1, §2
22Rv1 cells were seeded at 5000 cells/well (90 μL) on a 96-well plate and cultured for 48 h.
as §3
(§5) For 22Rv1 cells and PC-3 cells, the compound stock solution was diluted with DMSO to give DMSO solutions 11-19 at concentrations of 0 μM, 500 μM, 100 μM, 20 μM, 4 μM, 0.8 μM, 0.16 μM, 0.032 μM, 0.0064 μM.
For 22Rv1 cells, 2 μL of each of the above solutions 11-19 was added to 98 μL of 22Rv1 medium to give mixed solutions 30-38 of the compound and the medium.
(§6) For 22Rv1 and PC-3 cells, 10 μL of each of the above solutions 30-38 or 39-47 was added to the above cell seed solution to give a total volume of 100 μL (90 μL+10 μL), where the concentrations of the compound in wells were 0 μM, 1.0 μM, 0.2 μM, 0.04 μM, 0.008 μM, 0.0016 μM, 0.00032 μM, 0.00006 μM, and 0.00001 μM. All concentrations were in triplicate.
as §4

PC-3 cells = assay: Anti-proliferative toxicity against prostate cancer cell line PC-3 (CCK8); conditions: Homo sapiens, 72 h, 3 days
Description: as §1
PC-3 cells (purchased from the Cell Bank of the Chinese Academy of Sciences, Cat. No. SCSP-532) were subcultured in a culture medium (F12K medium+1% penicillin-streptomycin dual-antibiotic solution+10% fetal bovine serum) in an incubator at 5% carbon dioxide and 37° C.
PC-3 cells were seeded at 4000 cells/well (90 μL) on a 96-well plate and cultured for 24 h.
as §3, §5
For PC-3 cells, 2 μL of each of the above solutions 11-19 was added to 98 μL of PC-3 medium to give mixed solutions 39-47 of the compound and the medium.
as §6, §4

Measured: IC50

C[C@]12C=CC(=O)N[C@@H]1CC[C@@H]1[C@@H]2CC[C@]2(C)[C@@H](C(=O)Nc3ccc(OCCCNc4cccc5c4C(=O)N(C4CCC(=O)NC4=O)C5=O)cc3)CC[C@@H]12 (stereo partly drawn) [C17, N-(4-((3-((4-(2-(3-(2,6-dioxopiperidine))-isoindole-1,3-dione))amino)propyl)oxy)phenyl)-3-oxo-4-aza-5α-androst-1-ene-17β-carboxamide]
> 1000 nM: all assays above

C[C@]12C=CC(=O)N[C@@H]1CC[C@@H]1[C@@H]2CC[C@]2(C)[C@@H](C(=O)Nc3ccc(OCCCNc4ccc5c(c4)C(=O)N(C4CCC(=O)NC4=O)C5=O)cc3)CC[C@@H]12 (stereo partly drawn) [C18, N-(4-((3-((5-(2-(3-(2,6-dioxopiperidine))-isoindole-1,3-dione))amino)propyl)oxy)phenyl)-3-oxo-4-aza-5α-androst-1-ene-17β-carboxamide]
> 1000 nM: all assays above

C[C@]12C=CC(=O)N[C@@H]1CC[C@@H]1[C@@H]2CC[C@]2(C)[C@@H](C(=O)Nc3ccc(OCCCCCNc4cccc5c4C(=O)N(C4CCC(=O)NC4=O)C5=O)cc3)CC[C@@H]12 (stereo partly drawn) [C19, N-(4-((5-((4-(2-(3-(2,6-dioxopiperidine))-isoindole-1,3-dione))amino)pentyl)oxy)phenyl)-3-oxo-4-aza-5α-androst-1-ene-17β-carboxamide]
> 1000 nM: all assays above

C[C@]12C=CC(=O)N[C@@H]1CC[C@@H]1[C@@H]2CC[C@]2(C)[C@@H](C(=O)Nc3ccc(OCCCCCNc4ccc5c(c4)C(=O)N(C4CCC(=O)NC4=O)C5=O)cc3)CC[C@@H]12 (stereo partly drawn) [C20, N-(4-((5-((5-(2-(3-(2,6-dioxopiperidine))-isoindole-1,3-dione))amino)pentyl)oxy)phenyl)-3-oxo-4-aza-5α-androst-1-ene-17β-carboxamide]
> 1000 nM: all assays above

C[C@]12C=CC(=O)N[C@@H]1CC[C@@H]1[C@@H]2CC[C@]2(C)[C@@H](C(=O)Nc3ccc(OCCCCCCNc4cccc5c4C(=O)N(C4CCC(=O)NC4=O)C5=O)cc3)CC[C@@H]12 (stereo partly drawn) [C21, N-(4-((6-((4-(2-(3-(2,6-dioxopiperidine))-isoindole-1,3-dione))amino)hexyl)oxy)phenyl)-3-oxo-4-aza-5α-androst-1-ene-17β-carboxamide]
> 1000 nM: all assays above

C[C@]12C=CC(=O)N[C@@H]1CC[C@@H]1[C@@H]2CC[C@]2(C)[C@@H](C(=O)Nc3ccc(OCCCCCCNc4ccc5c(c4)C(=O)N(C4CCC(=O)NC4=O)C5=O)cc3)CC[C@@H]12 (stereo partly drawn) [C22, N-(4-((6-((5-(2-(3-(2,6-dioxopiperidine))-isoindole-1,3-dione))amino)hexyl)oxy)phenyl)-3-oxo-4-aza-5α-androst-1-ene-17β-carboxamide]
> 1000 nM: all assays above

C[C@]12C=CC(=O)N[C@@H]1CC[C@@H]1[C@@H]2CC[C@]2(C)[C@@H](C(=O)Nc3ccc(OCCCCCCCNc4cccc5c4C(=O)N(C4CCC(=O)NC4=O)C5=O)cc3)CC[C@@H]12 (stereo partly drawn) [C23, N-(4-((7-((4-(2-(3-(2,6-dioxopiperidine))-isoindole-1,3-dione))amino)heptyl)oxy)phenyl)-3-oxo-4-aza-5α-androst-1-ene-17β-carboxamide]
> 1000 nM: all assays above

C[C@]12C=CC(=O)N[C@@H]1CC[C@@H]1[C@@H]2CC[C@]2(C)[C@@H](C(=O)Nc3ccc(OCCCCCCCNc4ccc5c(c4)C(=O)N(C4CCC(=O)NC4=O)C5=O)cc3)CC[C@@H]12 (stereo partly drawn) [C24, N-(4-((7-((5-(2-(3-(2,6-dioxopiperidine))-isoindole-1,3-dione))amino)heptyl)oxy)phenyl)-3-oxo-4-aza-5α-androst-1-ene-17β-carboxamide]
> 1000 nM: all assays above
